Measurements taken from article PMC8421423, “Cellular model system to dissect the isoform-selectivity of Akt inhibitors” (Nature Communications, 2021).
“And” between values parts separate entries of the source, which are not always exact repeats. Equal entries are not always repeated. Where two headings read alike, the source gives them in different places.

Assays:
[1] = system: parental Ba/F3 cells; test: CellTiter-Glo cell viability assay; format: cell-based, murine
Description: (§1) On day 0, cells were plated into white 384-well cell culture plates (Greiner Bio-One) using a Multidrop reagent dispenser (Thermo Fisher Scientific) at cell numbers that ensure linear and optimal luminescent signal intensity (Ba/F3myr-Akt1: 600 cells/well, Ba/F3myr-Akt2: 800 cells/well, Ba/F3myr-Akt3: 800 cells/well). […] Cell viability was analyzed on day 4 using the CellTiter-Glo Assay (Promega) as per the manufacturer’s instructions. […] All experimental points were measured in duplicates for each plate and were replicated in at least three plates.

[2] = target: T1, Akt1 (Homo sapiens, UniProt P31749, E114A/E115A/E116A); test: ESI-MS/MS of tryptic digest (modified cysteine residues); format: binding; conditions: 5-fold molar excess of inhibitor
T1 construct: AKT1(2–446, E114/115/116A); His6 with TEV protease recognition site (N, cleaved yes); made in house; host or cells: Spodoptera frugiperda (Sf9)
T1 sequence (P31749 2-446 E114A/E115A/E116A): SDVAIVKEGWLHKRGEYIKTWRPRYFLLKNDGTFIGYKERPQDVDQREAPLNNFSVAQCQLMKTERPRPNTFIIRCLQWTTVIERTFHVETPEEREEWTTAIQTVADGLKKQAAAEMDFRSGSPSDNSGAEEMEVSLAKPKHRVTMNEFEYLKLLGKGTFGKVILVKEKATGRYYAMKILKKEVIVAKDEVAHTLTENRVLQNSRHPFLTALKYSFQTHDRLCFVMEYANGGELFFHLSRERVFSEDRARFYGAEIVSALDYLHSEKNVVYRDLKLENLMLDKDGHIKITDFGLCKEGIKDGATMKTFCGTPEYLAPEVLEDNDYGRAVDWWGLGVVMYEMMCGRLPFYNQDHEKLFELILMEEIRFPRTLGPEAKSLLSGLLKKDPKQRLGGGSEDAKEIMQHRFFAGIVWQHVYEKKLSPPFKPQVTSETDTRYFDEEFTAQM
Description: ESI-MS/MS samples were prepared as stated above followed by steps of reduction, alkylation, and tryptic digest. The digested samples were stage tip-purified using C18 tips and according to a protocol described elsewhere. Subsequently, samples were thawed, dissolved in 20 μL of 0.1% TFA in water, sonicated at room temperature for 15 min, and centrifuged at 15,000×g for 1 min shortly before analysis. In all, 3 μL of sample were loaded onto a pre-column cartridge and desalted for 5 min using 0.1% TFA in water as eluent at a flow rate of 30 μL/min. The samples were back-flushed from the pre-column to the nano-HPLC column during the whole analysis. Elution was performed using a gradient starting at 5% B with a final composition of 30% B after 35 min (flow rate 300 nL/min) using 0.1% formic acid in water as eluent A and 0.1% formic acid in acetonitrile as eluent B and a column temperature of 40 °C. […] During the complete gradient cycle, a typical TOP10 shot-gun proteomics method for the MS and MS/MS analysis was used. For full scan MS experiments a mass range of m/z 300–1650 was scanned with a resolution of 70000. MS/MS experiments were followed by up to 10 high energy collision dissociation (HCD) MS/MS scans with a resolution of 17,500 of the most intense at least doubly charged ions. Data evaluation was performed using MaxQuant[50]. Spectra were searched against the specific Akt sequence and a contamination database using a false discovery rate of 1% on peptide and protein level using a decoy database for determination of the false discovery rate. For database search oxidation of methionine and N-terminal acetylation of proteins, carbamidomethylation of cysteines, and artificial modification of cysteines were defined as variable modifications.

[3] = system: Ba/F3^myr-Akt1 cells; test: CellTiter-Glo cell viability assay
[4] = system: Ba/F3^myr-Akt2 cells; test: CellTiter-Glo cell viability assay
[5] = system: Ba/F3^myr-Akt3 cells; test: CellTiter-Glo cell viability assay
Description: as §1

[6] = target: Akt1 (Homo sapiens, UniProt P31749); test: STK HTRF KinEASE activity-based assay (IC50)
Sequence of Akt1 (Homo sapiens, UniProt P31749) (P31749 whole entry): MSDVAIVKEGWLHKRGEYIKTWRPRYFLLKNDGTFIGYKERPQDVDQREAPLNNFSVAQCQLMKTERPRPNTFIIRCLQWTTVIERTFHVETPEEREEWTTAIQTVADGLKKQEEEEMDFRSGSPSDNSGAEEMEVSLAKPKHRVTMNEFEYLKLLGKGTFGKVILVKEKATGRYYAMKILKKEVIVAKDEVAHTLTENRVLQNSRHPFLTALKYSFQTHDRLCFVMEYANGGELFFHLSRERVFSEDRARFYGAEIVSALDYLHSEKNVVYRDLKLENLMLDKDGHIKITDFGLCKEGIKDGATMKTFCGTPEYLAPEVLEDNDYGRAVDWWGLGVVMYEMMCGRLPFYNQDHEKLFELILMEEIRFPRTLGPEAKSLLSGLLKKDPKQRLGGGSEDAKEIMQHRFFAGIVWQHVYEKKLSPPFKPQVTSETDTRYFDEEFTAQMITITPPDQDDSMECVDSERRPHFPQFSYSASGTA
Description: (§2) The biochemical half maximal inhibitory concentrations (IC50) were determined with the STK HTRF KinEASE assay (Cisbio) according to the manufactor’s instructions. Briefly: 5 µL Kinase solution and 2.5 µL inhibitor solution (8% DMSO in HTRF buffer) were incubated for 1 h before the reaction was started by addition of 2.5 µL starting solution containing ATP and substrate peptide. […] After reaction completion (Akt1: 60 min, Akt2: 20 min, Akt3: 15 min), 10 µL of stop solution were added. […] The quotient of both intensities were recorded at eight different inhibitor concentrations and data fit to a Hill 4-parameter equation with Quattro software suite (Quattro Research GmbH, Martinsried, Germany). Each reaction was performed in duplicates and at least three independent determinations of each IC50 were made.

[7] = target: Akt2 (Homo sapiens, UniProt P31751); test: STK HTRF KinEASE activity-based assay (IC50)
Sequence of Akt2 (P31751 whole entry): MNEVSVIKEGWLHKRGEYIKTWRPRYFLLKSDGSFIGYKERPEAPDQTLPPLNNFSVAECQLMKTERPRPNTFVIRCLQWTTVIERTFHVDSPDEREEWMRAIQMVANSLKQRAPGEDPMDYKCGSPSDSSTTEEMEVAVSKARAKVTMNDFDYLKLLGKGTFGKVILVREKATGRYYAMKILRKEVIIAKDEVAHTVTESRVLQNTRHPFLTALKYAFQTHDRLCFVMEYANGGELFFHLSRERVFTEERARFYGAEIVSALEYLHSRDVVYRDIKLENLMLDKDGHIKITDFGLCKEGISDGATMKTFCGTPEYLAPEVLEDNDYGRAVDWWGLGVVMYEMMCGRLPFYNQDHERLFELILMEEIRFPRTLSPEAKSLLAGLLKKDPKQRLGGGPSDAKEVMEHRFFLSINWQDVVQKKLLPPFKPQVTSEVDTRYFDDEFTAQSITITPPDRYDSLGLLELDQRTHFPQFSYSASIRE
Description: as §2

[8] = target: Akt3 (Homo sapiens, UniProt Q9Y243); test: STK HTRF KinEASE activity-based assay (IC50)
Sequence of Akt3 (Q9Y243 whole entry): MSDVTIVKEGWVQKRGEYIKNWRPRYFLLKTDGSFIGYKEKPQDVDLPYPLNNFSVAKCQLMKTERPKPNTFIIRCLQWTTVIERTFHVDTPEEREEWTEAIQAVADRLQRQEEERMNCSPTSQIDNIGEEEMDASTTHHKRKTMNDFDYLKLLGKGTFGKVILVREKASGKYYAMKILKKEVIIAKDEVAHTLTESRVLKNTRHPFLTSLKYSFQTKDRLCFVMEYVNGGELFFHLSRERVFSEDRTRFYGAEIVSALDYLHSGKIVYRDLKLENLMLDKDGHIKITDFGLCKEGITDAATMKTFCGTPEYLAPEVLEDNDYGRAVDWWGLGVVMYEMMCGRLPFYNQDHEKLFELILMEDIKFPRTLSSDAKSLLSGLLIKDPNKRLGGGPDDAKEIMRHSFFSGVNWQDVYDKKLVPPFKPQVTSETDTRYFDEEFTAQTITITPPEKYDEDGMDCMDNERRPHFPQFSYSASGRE
Description: as §2

[9] = cell viability assay Ba/F3 myr-Akt cells, log units

C=CC(=O)Nc1ccc2[nH]c(=O)n(C3CCN(Cc4ccc(-c5ncc(C(=O)NC)cc5-c5ccccc5)cc4)CC3)c2c1 [compound 6]
EC50 ([1]; Mus musculus, BaF3, CTG, parental BaF3 cell line, read-out: EC50 BaF3): > 30 µM | EC50 ([1]; Mus musculus, BaF3, parental cells, mean of replicates, read-out: CTG BaF3, Mean): > 30 µM | EC50 ([1]; Mus musculus, BaF3, parental cells, single replicates, read-out: CTG BaF3, individual determinations): > 30 µM | EC50 ([1]; parental cells, single replicates, read-out: CTG BaF3, individual determinations): > 30 µM | modified cysteine residues in Akt1 (MS/MS) [2]: Cys296 and Cys310 | EC50 ([3]; Mus musculus, read-out: CTG BaF3myr-Akt1, Mean, mean of replicates): 9.61 µM | EC50 ([3]; Mus musculus, read-out: CTG BaF3myr-Akt1, individual determinations, single replicates): 7.7 µM | Log ratio EC50 [Akt] / EC50 [Akt], Akt1 / Akt2 [3, 9]: -0.05 | EC50 ([3]; read-out: CTG BaF3myr-Akt1, individual determinations, single replicates): 11.7 µM and 9.47 µM | EC50 ([4]; Mus musculus, read-out: CTG BaF3myr-Akt2, Mean, mean of replicates): 10.8 µM | EC50 ([4]; Mus musculus, read-out: CTG BaF3myr-Akt2, individual determinations, single replicates): 12.6 µM | EC50 ([4]; read-out: CTG BaF3myr-Akt2, individual determinations, single replicates): 7.18 µM and 12.6 µM | EC50 ([5]; Mus musculus, read-out: CTG BaF3myr-Akt3, individual determinations, single replicates): > 30 µM | Log ratio EC50 [Akt] / EC50 [Akt], Akt3 / Akt2 [5, 9]: -0.38 | EC50 ([5]; read-out: CTG BaF3myr-Akt3, individual determinations, single replicates): 22.6 µM and 24.5 µM | loss of activity compared to the ester version ([6]; Akt1, biochemical IC50): 4 fold | IC50 ([6]; HTRF IC50 Akt1, Mean, mean of replicates): 0.112 µM | IC50 ([6]; HTRF IC50 Akt1, individual determinations, single replicates): 0.113 µM and 0.133 µM and 0.0909 µM | IC50 ([6]; IC50 Akt1, HTRF, ATP at KM, 1 h preincubation): 0.112 ± 0.021 µM | Log ratio IC50 [Akt] / IC50 [Akt], Akt1 / Akt2 ([6]; biochemical activity based assay, log units): 0.02 | IC50 ([7]; HTRF IC50 Akt2, individual determinations, single replicates): 0.0841 µM and 0.151 µM and 0.0886 µM | IC50 ([7]; IC50 Akt2, HTRF, ATP at KM, 1 h preincubation): 0.108 ± 0.031 µM | IC50 ([8]; HTRF IC50 Akt3, Mean, mean of replicates): 5.75 µM | IC50 ([8]; HTRF IC50 Akt3, individual determinations, single replicates): 5.69 µM and 3.89 µM and 7.68 µM | IC50 ([8]; IC50 Akt3, HTRF, ATP at KM, 1 h preincubation): 5.75 ± 1.55 µM
